Reference: patent US11667651B2, “Aminopyridine derivatives as phosphatidylinositol phosphate kinase inhibitors” (HiberCell, Inc., priority 2017, dated 2023)

Legend:
PIP4K2B = target: T1, PIP4K2B (Homo sapiens, UniProt P78356); experiment: Trans-FI P kinase assay PIP4K2B (Table 4); assay type: biochemical; details: compounds listed under IC50 bins; read-out: Trans-FI P kinase assays: PIP4K2B IC50
T1 construct: made in house; host or cells: E. coli
T1 sequence (P78356 1-416): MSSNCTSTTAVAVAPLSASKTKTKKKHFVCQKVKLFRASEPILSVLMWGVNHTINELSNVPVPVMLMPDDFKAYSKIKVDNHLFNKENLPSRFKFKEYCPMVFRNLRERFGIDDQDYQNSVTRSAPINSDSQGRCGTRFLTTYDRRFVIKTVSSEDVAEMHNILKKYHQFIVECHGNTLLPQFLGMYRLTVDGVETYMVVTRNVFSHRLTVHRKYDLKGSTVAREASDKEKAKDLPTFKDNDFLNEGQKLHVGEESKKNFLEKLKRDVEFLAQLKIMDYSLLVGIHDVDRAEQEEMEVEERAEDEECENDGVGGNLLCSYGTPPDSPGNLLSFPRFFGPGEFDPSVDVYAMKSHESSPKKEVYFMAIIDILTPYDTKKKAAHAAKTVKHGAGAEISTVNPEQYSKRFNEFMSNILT
How it was run: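 Transcreener FI detection (Ex 584/Em 623) of GDP, converted via calibration curve, gives IC50 from residual activity versus log concentration (highest 4.8 μM). Reaction: 80 μM PI5P plus DOPE carrier, 100 μM GTP, 5 nM GST-tagged enzyme, pH 7.3 HEPES with MgCl2 and 5% DMSO, 2 h after 1 h enzyme-compound preincubation at 27° C.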

PIP4K2A = target: T2, PIP4K2A (Homo sapiens, UniProt P48426); experiment: ADP-glo kinase assay PIP4K 2A (Table 3); assay type: biochemical; design: made in house; host or cells: E. coli; details: compounds listed under IC50 bins
T2 sequence (P48426 1-406): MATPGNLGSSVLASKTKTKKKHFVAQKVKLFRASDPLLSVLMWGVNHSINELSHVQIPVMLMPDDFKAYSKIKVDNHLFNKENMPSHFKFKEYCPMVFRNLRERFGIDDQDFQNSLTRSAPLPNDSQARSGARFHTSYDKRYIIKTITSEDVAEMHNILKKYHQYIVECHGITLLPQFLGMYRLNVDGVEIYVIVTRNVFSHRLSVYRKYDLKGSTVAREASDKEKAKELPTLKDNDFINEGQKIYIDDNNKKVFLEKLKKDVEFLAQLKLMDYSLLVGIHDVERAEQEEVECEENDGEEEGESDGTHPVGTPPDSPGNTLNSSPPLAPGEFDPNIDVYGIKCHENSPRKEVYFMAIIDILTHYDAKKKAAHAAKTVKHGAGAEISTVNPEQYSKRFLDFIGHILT
Protocol: Dilution series of the compounds were prepared in DMSO at 100 times the final assay concentration (n1=n0/3 in 10 points). The compounds were further diluted to three times the assay concentration in assay buffer (20 mM MOPS pH 7.2, 25 mM magnesium chloride, 0.005% Tween 20). 6 μL of the diluted compounds were added to a 384 well assay plate followed by 9 μL of a mix consisting of 4 nM PIP4K2A (full length protein, SignalChem) and 100 μM PI(5)P diC8 (Tebu-Bio). Enzyme and compounds were pre-incubated at room temperature for 15 minutes.
Then 3 μL of a solution containing 60 μM ATP (Promega) in assay buffer was added to the wells containing compound and enzyme and mixing was performed by pipetting several times. The reaction was incubated at room temperature for 1 h. Then 18 μL of ADP-Glo™ Reagent (Promega) was added to stop the kinase reaction and deplete the unconsumed ATP, mixing was performed by pipetting several times. The plate was incubated at room temperature for 40 minutes before addition of 36 μL of Kinase Detection Reagent (Promega) to convert ADP to ATP and introduce luciferase and luciferin to detect ATP. The reaction was incubated at room temperature for 40 minutes before the luminescence was measured in a in a Victor 3V 1420 multilabel counter (Perkin Elmer).
Percent inhibition of the compounds as compared to dimethyl sulfoxide treated control samples was calculated. Compound concentration versus percent inhibition were fitted to generate IC50 values. […]

| SMILES | IC50 (PIP4K2B) | IC50 (PIP4K2A) |
| --- | --- | --- |
| Cc1cc(N2CCCC2=O)ccc1-c1cnc(Nc2cnc3c(c2)N2C(=O)CC[C@H]2CO3)nc1 [Example 198, (S)-2-((5-(2-methyl-4-(2-oxopyrrolidin-1-yl)phenyl)pyrimidin-2-yl)amino)-6,6a,7,8-tetrahydro-9H-pyrido[2,3-b]pyrrolo[1,2-d][1,4]oxazin-9-one] | 1 to 10 nM | 1 to 10 nM |
| Nc1nc(Nc2cnc3c(c2)N2C(=O)CC[C@H]2CO3)ncc1-c1ccc(N2CCCC2=O)cc1 [Example 199, (S)-2-((4-amino-5-(4-(2-oxopyrrolidin-1-yl)phenyl)pyrimidin-2-yl)amino)-6,6a,7,8-tetrahydro-9H-pyrido[2,3-b]pyrrolo[1,2-d][1,4]oxazin-9-one] | 1 to 10 nM | 1 to 10 nM |
| COc1nc(Nc2cnc3c(c2)N2C(=O)C4(CC4)C[C@H]2CO3)ncc1-c1ccc(N2CCCC2=O)cc1 [Example 200, (S)-2′-((4-methoxy-5-(4-(2-oxopyrrolidin-1-yl)phenyl)pyrimidin-2-yl)amino)-6a′,7′-dihydro-6′H,9′H-spiro[cyclopropane-1,8′-pyrido[2,3-b]pyrrolo[1,2-d][1,4]oxazin]-9′-one] | 1 to 10 nM | ≤ 1 nM |
| Cc1nc(Nc2cnc3c(c2)N2C(=O)C4(CC4)C[C@H]2CO3)ncc1-c1ccc(N2CCCC2=O)cc1 [Example 201, (S)-2′-((4-methyl-5-(4-(2-oxopyrrolidin-1-yl)phenyl)pyrimidin-2-yl)amino)-6a′,7′-dihydro-6′H,9′H-spiro[cyclopropane-1,8′-pyrido[2,3-b]pyrrolo[1,2-d][1,4]oxazin]-9′-one] | 1 to 10 nM | 1 to 10 nM |
| Cc1cc(N2CCCC2=O)ccc1-c1cnc(Nc2cnc3c(c2)N2C(=O)C4(CC4)C[C@H]2CO3)nc1 [Example 203, (S)-2′-((5-(2-methyl-4-(2-oxopyrrolidin-1-yl)phenyl)pyrimidin-2-yl)amino)-6a′,7′-dihydro-6′H,9′H-spiro[cyclopropane-1,8′-pyrido[2,3-b]pyrrolo[1,2-d][1,4]oxazin]-9′-one] | 1 to 10 nM | 1 to 10 nM |
| Nc1nc(Nc2cnc3c(c2)N2C(=O)C4(CC4)C[C@H]2CO3)ncc1-c1ccc(N2CCCC2=O)cc1 [Example 204, (S)-2′-((4-amino-5-(4-(2-oxopyrrolidin-1-yl)phenyl)pyrimidin-2-yl)amino)-6a′,7′-dihydro-6′H,9′H-spiro[cyclopropane-1,8′-pyrido[2,3-b]pyrrolo[1,2-d][1,4]oxazin]-9′-one] | 1 to 10 nM | 1 to 10 nM |
| O=C1CCCN1c1ccc(-c2cnc(Nc3cnc4c(c3)N3C(=O)C5(CC5)C[C@H]3CO4)nc2)cc1 [Example 205, (S)-2′-((5-(4-(2-oxopyrrolidin-1-yl)phenyl)pyrimidin-2-yl)amino)-6a′,7′-dihydro-6′H,9′H-spiro[cyclopropane-1,8′-pyrido[2,3-b]pyrrolo[1,2-d][1,4]oxazin]-9′-one] | 1 to 10 nM | 1 to 10 nM |
| Cc1cc(Nc2cnc3c(c2)N2C(=O)C4(CC4)C[C@H]2CO3)ncc1-c1ccc(N2CCCC2=O)cc1 [Example 206, (S)-2′-((4-methyl-5-(4-(2-oxopyrrolidin-1-yl)phenyl)pyridin-2-yl)amino)-6a′,7′-dihydro-6′H,9′H-spiro[cyclopropane-1,8′-pyrido[2,3-b]pyrrolo[1,2-d][1,4]oxazin]-9′-one] | 10 to 100 nM | 1 to 10 nM |
| COCc1cc(Nc2cnc3c(c2)N2C(=O)C4(CC4)C[C@H]2CO3)ncc1-c1ccc(N2CCCC2=O)cc1 [Example 207, (S)-2′-((4-(methoxymethyl)-5-(4-(2-oxopyrrolidin-1-yl)phenyl)pyridin-2-yl)amino)-6a′,7′-dihydro-6′H,9′H-spiro[cyclopropane-1,8′-pyrido[2,3-b]pyrrolo[1,2-d][1,4]oxazin]-9′-one] | 1 to 10 nM | 1 to 10 nM |
| Cc1cc(N2CCCC2=O)ccc1-c1ccc(Nc2cnc3c(c2)N2C(=O)C4(CC4)C[C@H]2CO3)nc1 [Example 208, (S)-2′-((5-(2-methyl-4-(2-oxopyrrolidin-1-yl)phenyl)pyridin-2-yl)amino)-6a′,7′-dihydro-6′H,9′H-spiro[cyclopropane-1,8′-pyrido[2,3-b]pyrrolo[1,2-d][1,4]oxazin]-9′-one] | 10 to 100 nM | 10 to 100 nM |
| CC(C)c1cc(Nc2cnc3c(c2)N2C(=O)C4(CC4)C[C@H]2CO3)ncc1-c1ccc(N2CCCC2=O)cc1 [Example 210, (S)-2′-((4-isopropyl-5-(4-(2-oxopyrrolidin-1-yl)phenyl)pyridin-2-yl)amino)-6a′,7′-dihydro-6′H,9′H-spiro[cyclopropane-1,8′-pyrido[2,3-b]pyrrolo[1,2-d][1,4]oxazin]-9′-one] | 1 to 10 nM | ≤ 1 nM |
| O=C1CCCN1c1ccc(-c2cnc(Nc3cnc4c(c3)N3C(=O)C5(CC5)C[C@H]3CO4)cc2C2CC2)cc1 [Example 211, (S)-2′-((4-cyclopropyl-5-(4-(2-oxopyrrolidin-1-yl)phenyl)pyridin-2-yl)amino)-6a′,7′-dihydro-6′H,9′H-spiro[cyclopropane-1,8′-pyrido[2,3-b]pyrrolo[1,2-d][1,4]oxazin]-9′-one] | 1 to 10 nM | ≤ 1 nM |
| COc1cc(Nc2cnc3c(c2)N2C(=O)C4(CC4)C[C@H]2CO3)ncc1-c1ccc(N2CCCC2=O)cc1 [Example 212, (S)-2′-((4-methoxy-5-(4-(2-oxopyrrolidin-1-yl)phenyl)pyridin-2-yl)amino)-6a′,7′-dihydro-6′H,9′H-spiro[cyclopropane-1,8′-pyrido[2,3-b]pyrrolo[1,2-d][1,4]oxazin]-9′-one] | 1 to 10 nM | ≤ 1 nM |
| CC(C)c1nc(Nc2cnc3c(c2)N2C(=O)C4(CC4)C[C@H]2CO3)ncc1-c1ccc(N2CCCC2=O)cc1 [Example 216, (S)-2′-((4-isopropyl-5-(4-(2-oxopyrrolidin-1-yl)phenyl)pyrimidin-2-yl)amino)-6a′,7′-dihydro-6′H,9′H-spiro[cyclopropane-1,8′-pyrido[2,3-b]pyrrolo[1,2-d][1,4]oxazin]-9′-one] | 1 to 10 nM | ≤ 1 nM |
| O=C([C@@H]1CCOC1)N1CCN(c2cncc(Nc3ccc(-c4ccc(N5CCCC5=O)cc4)cn3)c2)CC1 [Example 244, (R)-1-(4-(6-((5-(4-(tetrahydrofuran-3-carbonyl)piperazin-1-yl)pyridin-3-yl)amino)pyridin-3-yl)phenyl)pyrrolidin-2-one] | 10 to 100 nM | 100 to 1000 nM |
| O=C([C@H]1CCOC1)N1CCN(c2cncc(Nc3ccc(-c4ccc(N5CCCC5=O)cc4)cn3)c2)CC1 [Example 245, (S)-1-(4-(6-((5-(4-(tetrahydrofuran-3-carbonyl)piperazin-1-yl)pyridin-3-yl)amino)pyridin-3-yl)phenyl)pyrrolidin-2-one] | 10 to 100 nM | 100 to 1000 nM |
| O=C(Nc1cncc(Nc2ccc(-c3ccc(N4CCCC4=O)cc3)cn2)c1)C1CC1c1ccccc1 (stereo not drawn) [Example 247, N-(5-((5-(4-(2-oxopyrrolidin-1-yl)phenyl)pyridin-2-yl)amino)pyridin-3-yl)-2-phenylcyclopropane-1-carboxamide] | 10 to 100 nM | 1 to 10 nM |
| CCOc1ccc(C(=O)Nc2cncc(Nc3ccc(-c4ccc(N5CCCC5=O)cc4)cn3)c2)cn1 [Example 249, 6-ethoxy-N-(5-((5-(4-(2-oxopyrrolidin-1-yl)phenyl)pyridin-2-yl)amino)pyridin-3-yl)nicotinamide] | 10 to 100 nM | 1 to 10 nM |
